Earlier results in patent US7932083B2, “DNA participating in hydroxylation of macrolide compound” (priority 2003, dated 2011).

Conditions: statement of prior art (WO02/060890)

In the case of `CCC(O)C(C)C1OC1CC(C)(O)/C=C/C=C(\C)C1OC(=O)CC(O)CCC(C)(O)C(OC(C)=O)/C=C/C1C` (stereo not shown) [11107D], the antitumor activity is given as “excellent antitumor activity”.
